Laboratory results taken from paper PMC10974533, “Cationicity Enhancement on the Hydrophilic Face of Ctriporin Significantly Reduces Its Hemolytic Activity and Improves the Antimicrobial Activity against Antibiotic-Resistant ESKAPE Pathogens” (Toxins, 2024).
Where a SMILES comes first, the peptide text is derived from it.

What was measured:
Type in all cases: cell-based
standard ESKAPE strains = conditions: broth dilution (CLSI), MHB, 37 °C, 16–20 h; range over all standard strains
Experimental: The ESKAPE pathogens represent the main threat to public health concerning antimicrobial resistance. Therefore, we first evaluated the antimicrobial activities of Ctriporin and its analogs against the standard ESKAPE strains. The minimum inhibitory concentration (MIC) was chosen as the index for the evaluation of each peptide’s activity. […] Note that the MICs of CM4 and CM7 are 4–32 and 8–32 μg/mL, respectively, indicating the existence of significant bacterial species deviations for the antimicrobial activity of these peptides. In addition, the replacement of specific residues, especially Pro^7, may harm the antimicrobial activities of the peptide.
(§1) The standard strains, including S. aureus ATCC29213 and ATCC25923, E. faecalis ATCC29212, E. coli ATCC25922 and ATCC35218, A. baumannii ATCC19606, K. pneumoniae ATCC700603, and P. aeruginosa ATCC27853, were purchased from the China Center of Type Culture Collection (CCTCC). The clinical strains of the ESKAPE pathogens were isolated from the affiliated hospitals of Hubei University of Medicine. All of them were stored at −80 °C before use. The drug sensitivities of the clinical strains were determined by the Kirby–Bauer test.
(§2) The MICs were determined using the broth dilution method according to the guidelines of the Clinical and Laboratory Standards Institute (CLSI), as described in the previous studies. Briefly, the bacterial cells were incubated in Mueller–Hinton broth (MHB, Oxoid, Basingstoke, UK) at 37 °C and 150 rpm to the mid-growth phase and diluted to achieve a final concentration of 5 × 10^5 colony-forming units per milliliter (CFU/mL). Then, the cells were mixed with each peptide in different concentrations (1, 2, 4, 8, 16, 32, and 64 μg/mL). […] All experiments were repeated at least three times.

S. epidermidis 6943 = test: MIC, broth dilution, clinical isolate; conditions: MRSE clinical isolate; broth dilution (CLSI), MHB, 5 × 10^5 CFU/mL, 37 °C, 16–20 h, OD630
Experimental: as §1, §2

S. aureus 891 = test: MIC, broth dilution, clinical isolate; conditions: MRSA clinical isolate; broth dilution (CLSI), MHB, 5 × 10^5 CFU/mL, 37 °C, 16–20 h, OD630
Experimental: as §1, §2

A. baumannii 19462 = test: MIC, broth dilution, clinical isolate; conditions: CRE/MDR clinical isolate; broth dilution (CLSI), MHB, 5 × 10^5 CFU/mL, 37 °C, 16–20 h, OD630
Experimental: as §1, §2

P. aeruginosa 9014 = test: MIC, broth dilution, clinical isolate; conditions: CRE/MDR clinical isolate; broth dilution (CLSI), MHB, 5 × 10^5 CFU/mL, 37 °C, 16–20 h, OD630
Experimental: as §1, §2

A. baumannii 19295 = test: MIC, broth dilution, clinical isolate; conditions: CRE/MDR clinical isolate; broth dilution (CLSI), MHB, 5 × 10^5 CFU/mL, 37 °C, 16–20 h, OD630
Experimental: as §1, §2

K. pneumoniae 9126 = test: MIC, broth dilution, clinical isolate; conditions: CRE clinical isolate; broth dilution (CLSI), MHB, 5 × 10^5 CFU/mL, 37 °C, 16–20 h, OD630
Experimental: as §1, §2

E. faecium 898 = test: MIC, broth dilution, clinical isolate; conditions: MDR clinical isolate; broth dilution (CLSI), MHB, 5 × 10^5 CFU/mL, 37 °C, 16–20 h, OD630
Experimental: as §1, §2

S. aureus 9124 = test: MIC, broth dilution, clinical isolate; conditions: MRSA clinical isolate; broth dilution (CLSI), MHB, 5 × 10^5 CFU/mL, 37 °C, 16–20 h, OD630
Experimental: as §1, §2

E. coli 2687 = test: MIC, broth dilution, clinical isolate; conditions: ESBL clinical isolate; broth dilution (CLSI), MHB, 5 × 10^5 CFU/mL, 37 °C, 16–20 h, OD630
Experimental: as §1, §2

A. baumannii 19618 = test: MIC, broth dilution, clinical isolate; conditions: CRE/MDR clinical isolate; broth dilution (CLSI), MHB, 5 × 10^5 CFU/mL, 37 °C, 16–20 h, OD630
Experimental: as §1, §2

S. epidermidis 9092 = test: MIC, broth dilution, clinical isolate; conditions: MRSE clinical isolate; broth dilution (CLSI), MHB, 5 × 10^5 CFU/mL, 37 °C, 16–20 h, OD630
Experimental: as §1, §2

S. capitis 3255 = test: MIC, broth dilution, clinical isolate; conditions: MRSC clinical isolate; broth dilution (CLSI), MHB, 5 × 10^5 CFU/mL, 37 °C, 16–20 h, OD630
Experimental: as §1, §2

E. coli 2678 = test: MIC, broth dilution, clinical isolate; conditions: ESBL clinical isolate; broth dilution (CLSI), MHB, 5 × 10^5 CFU/mL, 37 °C, 16–20 h, OD630
Experimental: as §1, §2

[1] = test system: clinical isolates of CRE and multidrug-resistant (MDR) A. baumannii; conditions: broth dilution (CLSI), MHB
Experimental: To further evaluate the antimicrobial potential of CM5 and CM6, the MICs of these two peptides, as well as the parent peptide Ctriporin, were determined against clinical antibiotic-resistant isolates of ESKAPE strains. […] Note that CRE and MDR A. baumannii are listed at the top of the pathogens threatening public health. Compared with the parent peptide Ctriporin, eight to sixteen times improvement in terms of antimicrobial activity was obtained through our peptide design strategy.
as §2

K. pneumoniae ATCC700603 = test: MIC, broth dilution, standard strain; conditions: broth dilution (CLSI), MHB, 5 × 10^5 CFU/mL, 37 °C, 16–20 h, OD630, repeated at least three times
Experimental: as §1, §2

S. aureus ATCC29213 = test: MIC, broth dilution, standard strain; conditions: broth dilution (CLSI), MHB, 37 °C, 16–20 h
Experimental: as §1, §2

E. coli ATCC25922 = test: MIC, broth dilution, standard strain; conditions: broth dilution (CLSI), MHB, 37 °C, 16–20 h
Experimental: as §1, §2

E. faecium ATCC29212 = test: MIC, broth dilution, standard strain; conditions: broth dilution (CLSI), MHB, 37 °C, 16–20 h
Experimental: as §1, §2

E. coli ATCC35218 = test: MIC, broth dilution, standard strain; conditions: broth dilution (CLSI), MHB, 5 × 10^5 CFU/mL, 37 °C, 16–20 h, OD630, repeated at least three times
Experimental: as §1, §2

A. baumannii ATCC19606 = test: MIC, broth dilution, standard strain; conditions: broth dilution (CLSI), MHB, 37 °C, 16–20 h
Experimental: as §1, §2

P. aeruginosa ATCC27853 = test: MIC, broth dilution, standard strain; conditions: broth dilution (CLSI), MHB, 37 °C, 16–20 h
Experimental: as §1, §2

S. aureus ATCC25923 = test: MIC, broth dilution, standard strain; conditions: broth dilution (CLSI), MHB, 37 °C, 16–20 h
Experimental: as §1, §2

[2] = test system: human red blood cells (hRBC); test: Hemolytic activity determination; conditions: 2% (v/v) hRBC, 37 °C, 1 h; for curve of hemolysis% vs. peptide concentration (Figure 2): 0–512 μg/mL peptide, compared in words; for Hemolysis% at 256 μg/mL: 256 μg/mL peptide, OD540, 1% Triton X-100 = 100%, average ± standard error of three independent experiments
Experimental: Figure 2 Hemolytic activities of Ctriporin and its analogs against human red blood cells (hRBC). Hemolytic activities of Ctriporin (solid circle), CM1 (open circle), CM2 (open square), CM3 (upward triangle), CM4 (downward triangle), CM5 (half solid circle), CM6 (half solid square), and CM7 (half solid triangle), were measured against 2% (v/v) human red blood cells. The peptide concentrations are 0, 2, 4, 8, 16, 32, 64, 128, 256, and 512 μg/mL. The cells treated with 1% Triton X-100 were treated as 100% hemolysis. All experiments were repeated three times, and the data shown are the average ± standard error.
The hemolytic activities of the peptides were determined against human red blood cells (hRBCs). As described, sodium citrate-anticoagulated hRBCs were washed three times with 0.9% sodium chloride and diluted to a final concentration of 4% (v/v). Then, an equal volume of hRBC solutions was mixed with an equal volume of each peptide in a series of concentrations (0, 2, 4, 8, 16, 32, 64, 128, 256, and 512 μg/mL). After co-incubation at 37 °C for 1 h, the degree of hemolysis of the peptides was determined by detecting the release of hemoglobin from the damaged hRBCs by measuring the optical density at 540 nm (OD540). hRBCs in 0.9% sodium chloride and 1% Triton X-100 were considered 0% and 100% hemolysis, respectively. The results shown are the average ± standard error of data derived from three independent experiments. The percent hemolysis was calculated according to the following equation [53, 54]:Hemolysis (%) = 100 × (Asample − Ablank)/(Apositive − Ablank)

[3] = 5 × 10^5 CFU/mL, OD630, repeated at least three times

SMILES	MICs against the ESKAPE pathogens (range over the standard strains of Table 2) (standard ESKAPE strains) [µg/mL]	MICs (K. pneumoniae ATCC700603) [µg/mL]	MICs (S. aureus ATCC29213; [3]) [µg/mL]	MICs (E. coli ATCC25922; [3]) [µg/mL]	MICs (E. faecium ATCC29212; [3]) [µg/mL]	MICs (E. coli ATCC35218) [µg/mL]	MICs (A. baumannii ATCC19606; [3]) [µg/mL]	MICs (P. aeruginosa ATCC27853; [3]) [µg/mL]	MICs (S. aureus ATCC25923; [3]) [µg/mL]	curve of hemolysis% vs. peptide concentration (Figure 2) [2]	Hemolysis% at 256 μg/mL [2] [%]	further results
CC[C@H](C)[C@H](NC(=O)[C@H](C)NC(=O)[C@H](CCCCN)NC(=O)[C@@H]1CCCN1C(=O)[C@@H](NC(=O)[C@H](CC(C)C)NC(=O)[C@H](CCCCN)NC(=O)[C@H](Cc1c[nH]c2ccccc12)NC(=O)[C@H](CC(C)C)NC(=O)[C@@H](N)Cc1ccccc1)[C@@H](C)CC)C(=O)N[C@@H](CCCCN)C(=O)N[C@@H](CCCCN)C(=O)N[C@H](C(=O)N[C@@H](CCCCN)C(=O)N[C@@H](CO)C(=O)N[C@@H](CC(C)C)C(=O)N[C@H](C(=O)N[C@@H](CCCCN)C(=O)N[C@@H](CCCCN)C(N)=O)[C@@H](C)CC)C(C)C [CM5] (H-FLWKLIPKAIKKVKSLIKK-NH2)	2 to 8	8	4	8	8	4	2	4	4	decreased dramatically compared with Ctriporin	9.8 ± 0.6	MICs (S. epidermidis 6943): 4 µg/mL; MICs (S. aureus 891): 4 µg/mL; MICs (A. baumannii 19462): 2 µg/mL; MICs (P. aeruginosa 9014): 8 µg/mL; MICs (A. baumannii 19295): 2 µg/mL; MICs (K. pneumoniae 9126): 16 µg/mL; MICs (E. faecium 898): 4 µg/mL; MICs (S. aureus 9124): 8 µg/mL; MICs (E. coli 2687): 8 µg/mL; MICs (A. baumannii 19618): 2 µg/mL; MICs (S. epidermidis 9092): 4 µg/mL; MICs (S. capitis 3255): 2 µg/mL; MICs (E. coli 2678): 8 µg/mL; MIC values against clinical isolates of CRE and MDR A. baumannii [1]: 2 µg/mL
CC[C@H](C)[C@H](NC(=O)[C@H](C)NC(=O)[C@H](CCCCN)NC(=O)[C@H](CCCCN)NC(=O)[C@@H](NC(=O)[C@H](CC(C)C)NC(=O)[C@H](CCCCN)NC(=O)[C@H](Cc1c[nH]c2ccccc12)NC(=O)[C@H](CC(C)C)NC(=O)[C@@H](N)Cc1ccccc1)[C@@H](C)CC)C(=O)N[C@@H](CCCCN)C(=O)N[C@@H](CCCCN)C(=O)N[C@H](C(=O)N[C@@H](CCCCN)C(=O)N[C@@H](CCCCN)C(=O)N[C@@H](CC(C)C)C(=O)N[C@H](C(=O)N[C@@H](CCCCN)C(=O)N[C@@H](CCCCN)C(N)=O)[C@@H](C)CC)C(C)C [CM7] (H-FLWKLIKKAIKKVKKLIKK-NH2; N-terminus assumed)	8 to 32	32	32	32	32	16	8	8	32	positions closely to those of CM3	57.5 ± 9.8	MICs (S. aureus ATCC29213; value in parentheses): 13.6 µM; MICs (E. coli ATCC25922; value in parentheses): 13.6 µM; MICs (E. faecium ATCC29212; value in parentheses): 13.6 µM; MICs (A. baumannii ATCC19606; value in parentheses): 3.4 µM; MICs (P. aeruginosa ATCC27853; value in parentheses): 3.4 µM; MICs (S. aureus ATCC25923; value in parentheses): 13.6 µM
